The source of these data is patent publication US20170008888A1 (KYORIN PHARMACEUTICAL CO., LTD., priority 2014, published 2017).

SMILES strings stand for the structures. Where two headings read alike, the source gives them in different places. Marks after values point to notes of the source that are not given here.

Experiment [1] concerns Imiquimod-induced psoriasis mouse model. Put plainly: Imiquimod (IMQ)-induced acute model of psoriasis in mouse: skin thickness, erythema, scaling. The experiment is classed as in vivo, mouse (Balb/c). The method, then: Material and methods for the IMQ study were adapted from van der Fits et al. J Immunol., 2009, 182: 5836-5845. Eight week old male Balb/c mice (Harlan) received a daily topical dose of 62.5 mg 5% IMQ cream (Aldara™, Medicis) equivalent to 3.125 mg IMQ, on the shaved back (approximately 2×3.5 cm patch) and dorsal surface of the right ear for 6 consecutive days. Sham control mice were treated similarly with control cream (Hydrous Emulsified Base, HEB, Cream, Fagron). Treatments were administered by group as indicated in Table 1 below prior to daily application of IMQ (QD and morning dose of BID regimens), n=10 for all groups. […] Body weights and scoring of induced clinical disease were performed after dosing (Days 1-7) but prior to IMQ application (Days 1-6) on Days 1 (baseline), 3, 4, 6, 8. Mice were sacrificed on Day 8 and treated back skin tissue collected and divided for fixation for histopathology (a 12 mm punch in mid-back) the remainder flash frozen; right (IMQ) and left (control) ears, spleen (after wet weight) and lung were also individually collected and flash frozen, and stored at −70° C. for subsequent biochemical analyses. Statistics were performed using one-way ANOVA with Dunnett's post-hoc test comparing treated groups to the vehicle group, using InStat software (GraphPad, La Jolla, Calif.).
The severity of clinical disease was assessed by
1) skin thickness dial gauge micrometer measurements (duplicate) of the ears and the dorsal skin at the midline of the back (equal to double true measure of dorsal skin thickness)
2) erythema and scaling, independently scored on a scale from 0-4: 0=none, 1=slight, 2=moderate, 3=marked, 4=very marked with intermediate increments of 0.5 allowed.
Clinical disease assessments included erythema, scaling, skin thickness and cumulative disease severity scores and the change in skin thickness of the ears and dorsal back skin over time compared to baseline measurements (Tables 19 and 20). Body weights of the mice were measured at baseline and at end of study, and there were no significant changes in weight in any treatment group during the study (data not shown).

The test system of experiment [2] is diseased primary human synovial fibroblasts. The experiment in a line: Cytokine response by primary human synovial fibroblasts stimulated with IL-17A, TNF-α or both. The experiment is classed as cell-based. The settings on record: Fibroblast, 48 h. The method, then: Primary synovial fibroblasts isolated from the knee of a patient diagnosed with rheumatoid arthritis/osteoarthritis were obtained from Asterand (Detroit, Mich.) and maintained in FGM-2 fibroblast growth medium (Lonza, Allendale, N.J.). Cells were seeded at approximately 1.6e4 cells/ml and incubated at 37° C. in a humidified atmosphere at 5% CO2 until the cells reached ˜90% confluence. Cells were pre-treated with the test compounds (10 μM down by ⅕ in a 4-point serial dilution series) for 1 h at 37° C. in a humidified atmosphere at 5% CO2. DMSO at a final concentration of 0.1% served as the non-inhibited control. […] Cells were stimulated with 10 ng/ml human recombinant IL-17A (eBioscience, San Diego, Calif.), 10 ng/ml TNF-α, (Cell Signaling Technology, Danvers, Mass.) or both, for 48 h. Supernatant was then collected and analyzed for cytokine concentrations using the Bio-Plex Pro Human Cytokine 17-Plex Panel supplemented with RANTES and VEGF Singleplex analytes (Bio-Rad Laboratories, Hercules, Calif.) according to the manufacturer's instructions. Magnetic beads were measured on the Bio-Plex MAGPIX multiplex reader instrument using the accompanying xPONENT 4.2 acquisition software (Bio-Rad Laboratories). Data were analyzed via the Bio-Plex Manager software v6.1 (Bio-Rad Laboratories).

For a further experiment, the target named is T1, PCAF (Homo sapiens, UniProt Q92831).
T1 construct: made in house; host or cells: E. coli host derived from the BL21 strain (T7 phage lysate)
T1 sequence (Q92831 723-827 limits assumed): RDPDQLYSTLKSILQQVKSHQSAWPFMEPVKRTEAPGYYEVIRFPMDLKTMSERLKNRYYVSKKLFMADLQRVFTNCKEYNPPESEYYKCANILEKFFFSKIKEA
Put plainly: Bromodomain binding assay: PCAF. The method, then:
(§1) T7 phage strains displaying bromodomains were grown in parallel in 24-well blocks in an E. coli host derived from the BL21 strain. E. coli were grown to log-phase and infected with T7 phage from a frozen stock (multiplicity of infection=0.4) and incubated with shaking at 32° C. until lysis (90-150 minutes). The lysates were centrifuged (5,000×g) and filtered (0.2 μm) to remove cell debris. […] The liganded beads were blocked with excess biotin and washed with blocking buffer (SeaBlock (Pierce), 1% BSA, 0.05 Tween 20, 1 mM DTT) to remove unbound ligand and to reduce non-specific phage binding. […] Test compounds (T62 and 46) were prepared as 1000× stocks in 100% DMSO and subsequently diluted 1:10 in monoethylene glycol (MEG) to create stocks at 100× the screening concentration (resulting stock solution is 10% DMSO/90% MEG). The compounds were then diluted directly into the assays such that the final concentration of DMSO and MEG were 0.1% and 0.9%, respectively. All reactions were performed in polystyrene 96-well plates in a final volume of 0.135 ml. […] The bromodomain concentration in the eluates was measured by qPCR. Compounds were assayed for binding activity against a panel of 40 bromodomain-containing proteins.

The next experiment has as its target T2, BAZ2B (Homo sapiens, UniProt Q9UIF8).
T2 construct: T7 phage strains displaying bromodomains were grown in parallel; made in house; host or cells: E. coli host derived from BL21, infected with T7 phage
The experiment in a line: Bromodomain binding assay: BAZ2B. The procedure: as §1

[3] abbreviates: +Both IL-17A + TNF-α, read-out: EC50 (μM), G-CSF.
The mark [4] stands for this setting: +Both IL-17A + TNF-α, read-out: EC50 (μM), IL-6.
Where [5] appears, read: +Both IL-17A + TNF-α, read-out: EC50 (μM), IL-8.
[6] abbreviates: +Both IL-17A + TNF-α, read-out: EC50 (μM), RANTES.
Where [7] appears, read: +IL-17A 10 ng/ml, read-out: EC50 (μM), G-CSF.
Where [8] appears, read: +IL-17A 10 ng/ml, read-out: EC50 (μM), IL-6.
Where [9] appears, read: +IL-17A 10 ng/ml, read-out: EC50 (μM), IL-8.
Setting [10] is: +IL-17A 10 ng/ml, read-out: EC50 (μM), RANTES.
The mark [11] stands for this setting: +TNF-α 10 ng/ml, read-out: EC50 (μM), G-CSF.
The mark [12] stands for this setting: +TNF-α 10 ng/ml, read-out: EC50 (μM), IL-6.
Where [13] appears, read: +TNF-α 10 ng/ml, read-out: EC50 (μM), IL-8.
Where [14] appears, read: +TNF-α 10 ng/ml, read-out: EC50 (μM), RANTES.

T2 sequence (Q9UIF8 2060-2164 limits assumed, species assumed): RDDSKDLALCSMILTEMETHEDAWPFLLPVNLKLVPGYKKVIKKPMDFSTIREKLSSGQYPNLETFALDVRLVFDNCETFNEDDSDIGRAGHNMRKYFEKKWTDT

Turning to `CCOc1cc(C(=O)N2CCCN(C)CC2)ccc1Nc1cc2c(cn1)N(C)C(=O)c1ccccc1N2C` [Compound 8], in experiment [1] (Day 1 (baseline), 60 mpk BID), the “Clinical Score Erythema (0-4), AVG Score” value was determined as 0 and the “Clinical Score Scaling (0-4), AVG Score” value stood at 0. Moreover, in experiment [1] (Day 3, 60 mpk BID), the “% Mean DORSAL BACK THICKNESS versus day 1, AVG” value worked out at 33.49%; the “% Mean LEFT EAR THICKNESS [Control] versus day 1, AVG” value (“% Mean LEFT EAR THICKNESS” below) is given as −5.16%; the “% Mean RIGHT EAR THICKNESS [IMQ] versus day 1, AVG” value (“% Mean RIGHT EAR THICKNESS” below) was 0.09%; the “Clinical Score Erythema (0-4), AVG Score” value stood at 1.25. The “Clinical Score Scaling (0-4), AVG Score” value in experiment [1] (Day 3, 60 mpk BID) is on record as 0.5. In experiment [1] (Day 4, 60 mpk BID), the “% Mean DORSAL BACK THICKNESS versus day 1, AVG” value was 43.51%; the “% Mean LEFT EAR THICKNESS” value is given as −6.51%; the “% Mean RIGHT EAR THICKNESS” value stood at 5.74%; the “Clinical Score Erythema (0-4), AVG Score” value came to 1.4. Besides, the “Clinical Score Scaling (0-4), AVG Score” value in experiment [1] (Day 4, 60 mpk BID) was found to be 0.6. In addition, in experiment [1] (Day 6, 60 mpk BID), the “% Mean DORSAL BACK THICKNESS versus day 1, AVG” value was 74.47** %; the “% Mean LEFT EAR THICKNESS” value is listed as 1.15%; the “% Mean RIGHT EAR THICKNESS” value is on record as 36.67* %; the “Clinical Score Erythema (0-4), AVG Score” value was found to be 2.15. Besides, the “Clinical Score Scaling (0-4), AVG Score” value in experiment [1] (Day 6, 60 mpk BID) amounted to 2.8. In experiment [1] (Day 8, 60 mpk BID), the “% Mean DORSAL BACK THICKNESS versus day 1, AVG” value is recorded as 32.42^NS %; the “% Mean LEFT EAR THICKNESS” value is reported as −2.25%; the “% Mean RIGHT EAR THICKNESS” value is 33.58** %; the “Clinical Score Erythema (0-4), AVG Score” value stood at 1.95. Moreover, the “Clinical Score Scaling (0-4), AVG Score” value in experiment [1] (Day 8, 60 mpk BID) came out at 1.7.
`CCOc1cc(C(=O)N2CCC(N3CCN(C)CC3)CC2)ccc1Nc1cc2c(cn1)N(C)C(=O)c1ccccc1N2C` [Compound 61]: the EC50 in experiment [2] (setting [3]) is above 10 µM; in experiment [2] (setting [4]), above 10 µM; in experiment [2] (setting [5]), above 10 µM; in experiment [2] (setting [6]), 1.35 µM; in experiment [2] (setting [7]) it was 2.59 µM; in experiment [2] (setting [8]) it was 1.67 µM. For the same molecule, the EC50 in experiment [2] (setting [9]) is 0.87 µM; in experiment [2] (setting [10]), above 10 µM; in experiment [2] (setting [11]), 1.27 µM; in experiment [2] (setting [12]) it was 1.05 µM; in experiment [2] (setting [13]), 4.51 µM; in experiment [2] (setting [14]), 2.78 µM.
`CCOc1cc(C(=O)N2CC[C@@H](N(C)C)C2)ccc1Nc1cc2c(cn1)N(C)C(=O)c1ccccc1N2C` [Compound 115]: the EC50 in experiment [2] (setting [3]) is above 10 µM; in experiment [2] (setting [4]), above 10 µM; in experiment [2] (setting [5]), above 10 µM; in experiment [2] (setting [6]) it was 1.88 µM; in experiment [2] (setting [7]), 2.67 µM; in experiment [2] (setting [8]) it was 1.04 µM. For the same molecule, the half-maximal effective concentration (EC50) in experiment [2] (setting [9]) is 0.39 µM; in experiment [2] (setting [10]), above 10 µM; in experiment [2] (setting [11]) it was 1.25 µM; in experiment [2] (setting [12]) it was 1.71 µM; in experiment [2] (setting [13]) it was above 10 µM; in experiment [2] (setting [14]), above 10 µM.
Regarding `CCOc1cc(C(=O)N[C@H]2CC[C@H](O)CC2)ccc1Nc1cc2c(cn1)N(C)C(=O)c1ccccc1N2C` [Compound T62], the Kd on PCAF and on BAZ2B was above 20 µM each time.

The term EC50 denotes the concentration needed to bring the measured effect to its halfway point. As a reminder, the Kd is a measure of binding affinity in units of concentration.
